Columns and labels:
human FPRL2 = target: T1, human FPRL2 (Homo sapiens, UniProt P25089); assay: Intracellular calcium measurements (FLIPR), agonistic activity in HEK293-hFPRL2-Gα16 cells; assay type: cell-based; conditions: Fluo-4 calcium FLIPR, normalized to GLY14-Humanin 100 nM
T1 construct: expressed in transfected cells; host or cells: HEK293 (HEK293-hFPRL2-Gα16)
T1 sequence (P25089 1-353): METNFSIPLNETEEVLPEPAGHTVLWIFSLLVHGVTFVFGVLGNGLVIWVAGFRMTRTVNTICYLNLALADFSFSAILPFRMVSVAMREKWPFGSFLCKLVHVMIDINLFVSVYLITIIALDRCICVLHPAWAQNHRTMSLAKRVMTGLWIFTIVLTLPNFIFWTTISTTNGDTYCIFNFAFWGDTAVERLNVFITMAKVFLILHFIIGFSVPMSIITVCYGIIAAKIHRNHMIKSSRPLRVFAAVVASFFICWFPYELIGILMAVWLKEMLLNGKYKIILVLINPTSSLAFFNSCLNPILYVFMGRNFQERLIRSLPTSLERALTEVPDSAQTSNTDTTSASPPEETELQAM
How it was run: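 Peak values after baseline subtraction are expressed relative to 100 nM Gly14-Humanin; compounds diluted in assay buffer from 10 mM DMSO stocks.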

human ALX receptor = target: T2, human ALX receptor (Homo sapiens, UniProt P25090); assay: Intracellular calcium measurements (FLIPR), agonistic activity in HEK293-hALXR-Gα16 cells; assay type: cell-based; conditions: Fluo-4 calcium FLIPR, normalized to WKYMVm 10 nM
T2 construct: expressed in transfected cells; host or cells: HEK293 (HEK293-hALXR-Gα16)
T2 sequence (P25090 1-351): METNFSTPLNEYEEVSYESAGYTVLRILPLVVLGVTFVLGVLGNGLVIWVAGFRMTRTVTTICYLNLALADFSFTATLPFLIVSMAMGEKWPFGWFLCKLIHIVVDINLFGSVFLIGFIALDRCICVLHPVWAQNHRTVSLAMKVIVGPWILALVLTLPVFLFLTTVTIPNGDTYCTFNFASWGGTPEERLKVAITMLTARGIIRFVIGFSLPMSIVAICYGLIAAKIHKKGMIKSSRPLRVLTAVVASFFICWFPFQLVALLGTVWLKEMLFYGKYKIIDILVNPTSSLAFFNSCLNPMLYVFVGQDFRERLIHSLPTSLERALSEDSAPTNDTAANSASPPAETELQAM
How it was run: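 Agonist-induced calcium flux was recorded by FLIPR (488/540 nm) in HEK293-hALXR-Gα16 cells pre-loaded with Fluo-4 AM (1 μM, 60 min, 37°C). Peak signal above baseline, after subtracting buffer addition, was expressed relative to WKYMVm at 10 nM final.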

Row | Compound | EC50 (human FPRL2) [nM] | EC50 (human ALX receptor) [nM]
1 | O=C(CCCN1CCCC1)NC[C@H]1[C@H](C(=O)Nc2ccc(Br)cc2)[C@@H]2C=C[C@H]1C21CC1 (racemic) [Example 177, (5R*)—N^5-(4-Bromo-phenyl)-(6R*)-6-[(4-pyrrolidin-1-yl-butanoylamino)-methyl]-(4S*,7R*)-[4,7-ethenylene-spiro[2.4]heptane]-5-carboxamide] | 446 | 160
2 | Cc1cc(C(=O)NC[C@H]2[C@H](C(=O)Nc3ccc(Br)cc3)[C@@H]3C=C[C@H]2C32CC2)nn1C (racemic) [Example 178, (5R*)—N^5-(4-Bromo-phenyl)-(6R*)-6-{[(1,5-dimethyl-1H-pyrazole-3-carbonyl)-amino]-methyl}-(4S*,7R*)-[4,7-ethenylene-spiro[2.4]heptane]-5-carboxamide] | 4070 | 115
3 | O=C(NC[C@H]1[C@H](C(=O)Nc2ccc(Br)cc2)[C@@H]2C=C[C@H]1C21CC1)C1CCCC1 (racemic) [Example 179, (5R*)—N^5-(4-Bromo-phenyl)-(6R*)-6-{[(cyclopentyl-carbonyl)-amino]-methyl}-(4S*,7R*)-[4,7-ethenylene-spiro[2.4]heptane]-5-carboxamide] | 1380 | 200
4 | Cc1nc(CC(=O)NC[C@H]2[C@H](C(=O)Nc3ccc(Br)cc3)[C@@H]3C=C[C@H]2C32CC2)cs1 (racemic) [Example 180, (5R*)—N^5-(4-Bromo-phenyl)-(6R*)-6-[(2-(2-methyl-thiazol-4-yl)-acetylamino)-methyl]-(4S*,7R*)-[4,7-ethenylene-spiro[2.4]heptane]-5-carboxamide] | 888 | 252
5 | CN(C)CC(=O)NC[C@H]1[C@H](C(=O)Nc2ccc(Br)cc2)[C@@H]2C=C[C@H]1C21CC1 (racemic) [Example 181, (5R*)—N^5-(4-Bromo-phenyl)-(6R*)-6-[(2-(N,N-dimethyl-amino)-acetylamino)-methyl]-(4S*,7R*)-[4,7-ethenylene-spiro[2.4]heptane]-5-carboxamide] | 2050 | 265
6 | CN(C[C@H]1[C@H](C(=O)Nc2ccc(Br)cc2)[C@@H]2C=C[C@H]1C21CC1)C(=O)Cc1ccccc1Cl (racemic) [Example 182, (5R*)—N^5-(4-Bromo-phenyl)-(6R*)-6-{[N-(2-(2-chloro-phenyl)-acetyl)-N-methyl-amino]-methyl}-(4S*,7R*)-[4,7-ethenylene-spiro[2.4]heptane]-5-carboxamide] | 2020 | 298
7 | Cc1cc(C(=O)N(C)C[C@H]2[C@H](C(=O)Nc3ccc(Br)cc3)[C@@H]3C=C[C@H]2C32CC2)nn1C (racemic) [Example 183, (5R*)—N^5-(4-Bromo-phenyl)-(6R*)-6-{[N-(1,5-dimethyl-1H-pyrazole-3-carbonyl)-N-methyl-amino]-methyl}-(4S*,7R*)-[4,7-ethenylene-spiro[2.4]heptane]-5-carboxamide] | 8900 | 303
8 | O=C(CC1CC1)NC[C@H]1[C@H](C(=O)Nc2ccc(Br)cc2)[C@@H]2C=C[C@H]1C21CC1 (racemic) [Example 184, (5R*)—N^5-(4-Bromo-phenyl)-(6R*)-6-[(2-cyclopropyl-acetylamino)-methyl]-(4S*,7R*)-[4,7-ethenylene-spiro[2.4]heptane]-5-carboxamide] | > 14500 | 315
9 | Cn1c(CCC(=O)NC[C@H]2[C@H](C(=O)Nc3ccc(Br)cc3)[C@@H]3C=C[C@H]2C32CC2)nc2ccccc21 (racemic) [Example 185, (5R*)—N^5-(4-Bromo-phenyl)-(6R*)-6-[(3-(1-methyl-1H-benzoimidazol-2-yl)-propionylamino)-methyl]-(4S*,7R*)-[4,7-ethenylene-spiro[2.4]heptane]-5-carboxamide] | 709 | 336
10 | O=C(CCc1c[nH]c2ccccc12)NC[C@H]1[C@H](C(=O)Nc2ccc(Br)cc2)[C@@H]2C=C[C@H]1C21CC1 (racemic) [Example 186, (5R*)—N^5-(4-Bromo-phenyl)-(6R*)-6-[(3-1H-indol-3-yl-propionylamino)-methyl]-(4S*,7R*)-[4,7-ethenylene-spiro[2.4]heptane]-5-carboxamide] | 8960 | 463
11 | CCCC(=O)NC[C@H]1[C@H](C(=O)Nc2ccc(Br)cc2)[C@@H]2C=C[C@H]1C21CC1 (racemic) [Example 187, (5R*)—N^5-(4-Bromo-phenyl)-(6R*)-6-[(butanoylamino)-methyl]-(4S*,7R*)-[4,7-ethenylene-spiro[2.4]heptane]-5-carboxamide] | 4270 | 505
12 | O=C(CCc1ccc(F)cc1)NC[C@H]1[C@H](C(=O)Nc2ccc(Br)cc2)[C@@H]2C=C[C@H]1C21CC1 (racemic) [Example 188, (5R*)—N^5-(4-Bromo-phenyl)-(6R*)-6-[(3-(4-fluoro-phenyl)-propionylamino)-methyl]-(4S*,7R*)-[4,7-ethenylene-spiro[2.4]heptane]-5-carboxamide] | 1920 | 529
13 | O=C(C=Cc1ccccc1)NC[C@H]1[C@H](C(=O)Nc2ccc(Br)cc2)[C@@H]2C=C[C@H]1C21CC1 (racemic) [Example 189, (5R*)—N^5-(4-Bromo-phenyl)-(6R*)-6-[(3-phenyl-acryloylamino)-methyl]-(4S*,7R*)-[4,7-ethenylene-spiro[2.4]heptane]-5-carboxamide] | 3240 | 697
14 | Cc1nn(C)c(Cl)c1C(=O)NC[C@H]1[C@H](C(=O)Nc2ccc(Br)cc2)[C@@H]2C=C[C@H]1C21CC1 (racemic) [Example 190, (5R*)—N^5-(4-Bromo-phenyl)-(6R*)-6-{[(5-chloro-1,3-dimethyl-1H-pyrazole-4-carbonyl)-amino]-methyl}-(4S*,7R*)-[4,7-ethenylene-spiro[2.4]heptane]-5-carboxamide] | 1700 | 963
15 | CC(=O)c1csc(CNC(=O)[C@H]2[C@H](C(=O)NCCCCN3CCCC3)[C@H]3C=C[C@@H]2C32CC2)n1 (racemic) [Example 191, (5R*)—N^5-(4-Acetyl-thiazol-2-yl-methyl)-(6R*)—N^6-(4-pyrrolidin-1-yl-butyl)-(4S*,7R*)-[4,7-ethenylene-spiro[2.4]heptane]-5,6-dicarboxamide] | 826 | 140
16 | CC(=O)c1ccc(NC(=O)[C@H]2[C@H](C(=O)NCCCCN3CCCC3)[C@H]3C=C[C@@H]2C32CC2)cc1 (racemic) [Example 192, (5R*)—N^5-(4-Acetyl-phenyl)-(6R*)—N^6-(4-pyrrolidin-1-yl-butyl)-(4S*,7R*)-[4,7-ethenylene-spiro[2.4]heptane]-5,6-dicarboxamide] | 139 | 23
17 | Cc1cnc(NC(=O)[C@H]2[C@H](C(=O)NCCCCN3CCCC3)[C@H]3C=C[C@@H]2C32CC2)s1 (racemic) [Example 193, (5R*)—N^5-(5-Methyl-thiazol-2-yl)-(6R*)—N^6-(4-pyrrolidin-1-yl-butyl)-(4S*,7R*)-[4,7-ethenylene-spiro[2.4]heptane]-5,6-dicarboxamide] | 355 | 463
18 | CC(=O)c1ccc(CNC(=O)[C@H]2[C@H](C(=O)NCCCCN3CCCC3)[C@H]3C=C[C@@H]2C32CC2)s1 (racemic) [Example 194, (5R*)—N^5-(5-Acetyl-thiophen-2-yl-methyl)-(6R*)—N^6-(4-pyrrolidin-1-yl-butyl)-(4S*,7R*)-[4,7-ethenylene-spiro[2.4]heptane]-5,6-dicarboxamide] | 436 | 223
19 | O=C(NCCCCN1CCCC1)[C@H]1[C@H](C(=O)Nc2ccc(C(F)(F)F)cc2)[C@@H]2C=C[C@H]1C21CC1 (racemic) [Example 197, (5R*)—N^5-(4-Trifluoromethyl-phenyl)-(6R*)—N^6-(4-pyrrolidin-1-yl-butyl)-(4S*,7R*)-[4,7-ethenylene-spiro[2.4]heptane]-5,6-dicarboxamide] | 105 | 5.4
20 | CC(=O)c1ncc(CNC(=O)[C@H]2[C@H](C(=O)NCCCCN3CCCC3)[C@H]3C=C[C@@H]2C32CC2)o1 (racemic) [Example 198, (5R*)—N^5-(2-Acetyl-oxazol-5-yl-methyl)-(6R*)—N^6-(4-pyrrolidin-1-yl-butyl)-(4S*,7R*)-[4,7-ethenylene-spiro[2.4]heptane]-5,6-dicarboxamide] | 462 | 92

Reference: patent US8563714B2, “Bridged spiro [2.4] heptane derivatives as ALX receptor and/or FPRL2 agonists” (Actelion Pharmaceuticals Ltd., priority 2009, dated 2013)
